{"source": "patent US20090311246A1", "about": "“Method of Enhancing Remyelination in Demyelinating Diseases of the Central Nervous System” (priority 2008, published 2009)", "key": {"Normal Rabbit Serum": {"system": "Normal Rabbit Serum", "test": "Indirect ELISA of normal rabbit serum/IgG against viral and myelin antigens", "format": "binding", "settings": "10^−2 diluted"}, "[1]": {"system": "SFV-infected WT and γδ KO mice", "test": "E2 137-151 peptide immunization during SFV disease: serum antibody response (ELISA)", "format": "in vivo", "excerpt": "Optical densities (OD) (3A) and ratios (3B) of Non-immunized/Immunized, WT and KO, of ELISA responses to SFV and to E2 peptide, 137-151 is shown. Samples were collected on days 15, 21, 28 and 35 after intraperitoneal infection of B6 mice with SFV and immunization with E2 137-151. The dilutions for sera were 1:80, Amount of antibody is shown as mean optical density (OD) of sera from three experiments±standard error of the mean (SEM). The background OD is subtracted from each time point.\nTo measure the antibody response of both WT and γδ KO mice against SFV and two of the peptides of the SFV envelope protein, E2, an indirect ELISA was performed. Sera were pooled from 4-6 SFV-infected WT, and 3 KO, mice on days 0, 7, 14, 21 and 35 pi. Briefly, Immunolon 2HB 96 well microtiter plates (VWR, Bridge Port, N.J.) were coated with 1 μg/well of each antigen in 100 μl/well carbonate buffer overnight at room temperature. After washing, the plates were blocked and serum samples were added. […] After washing, biotinylated goat anti-mouse Igs (BD Pharmingen, Torreyana, Calif.), Strepavidin conjugated to Horse Radish Peroxidase (Vector Laboratories, Burlingame, Calif.), and OPD substrate (Sigma, St. Louis, Mo.) were used, as previously described (4, 9). […] Values were considered to be positive when they were >0.3 OD units and exceeded the mean value plus three standard deviations for antibody response on day 0 pi of mice of the same strain.\nWT and KO mice were immunized subcutaneously with E2 137-151 (0.5 mg/injection or 25 mg/kg, based on the average weight of 20 g/mouse) in IFA on the day of SFV-infection. Additional injections of E2 137/IFA were performed on days 5 and 15 for WT and KO mice. Mice are sacrificed on days 15, 21, 35 and 42 pi and sera were tested by ELISA for reactivity with SFV and its peptides. […] This immunization, however, appeared to have suppressed the formation of anti-E2 137-151 antibody in SFV-infected, E2 137-151-immunized WT mice."}, "B6 mice with EAE": {"system": "B6 mice with EAE", "test": "Inflammation, demyelination and remyelination in lumbar spinal cord of E2 137-151 treated EAE mice", "format": "in vivo", "excerpt": "All figures come from one micron epoxy sections taken from brain tissues, fixed in 2.5% glutaraldehyde/1% osmium tetroxide, embedded in epoxy resin, stained with toluidine blue and photographed by light microscopy.\n(§1) In order to be able to detect the de- and remyelination accurately, at the end of the experiment, mice will be sacrificed by an overdose of sodium pentobarbital and perfused by intracardiac puncture with Trumps fixative, containing 4% paraformaldehyde and 1% glutaraldehyde. Brains and spinal cords are removed and post fixed in osmium textroxide. Each brain is sectioned coronally into three pieces by cuts through infandibulum and optic chiasm. Spinal cord tissues will be also harvested and processed. Every third block (10-12 blocks per spinal cord, cervical to lumbar range) will be embedded, along with brain sections, in Araldite plastic. The embedded tissues will be cross-sectioned at 1 μm thickness, and the slides stained with toluidine blue or 4% paraphenylenediamine to highlight the myelin sheets. We have studied the one-micron thin sections of the brains of SFV-infected WT and KO on days of 21-42 postinfection.\nIn order to be able to analyze de- and remyelination accurately in untreated and E2 137-151 treated LAE mice, one micron sections of lumbar spinal cords of all mice, were analyzed as described above for SFV-infected mice, on different days post immunization. […] Widespread Wallerian degeneration evidenced by dilated and collapsed myelin sheaths, some containing axonal remnants, was also observed. Cellular infiltration was present within the meningeal space as well. […] Spinal cord white matter of normal control mice is also shown for comparison (FIG. 8C)"}, "[2]": {"system": "SFV-infected WT and γδ KO mice", "test": "E2 137-151 peptide immunization during SFV disease: histopathology, remyelination in one micron brain sections", "format": "in vivo", "settings": "for Remyelination in KO mice: peptide-immunized SFV-infected γδ KO mice, day 28 pi", "excerpt": "FIG. 4 Remyelination in E2 137-151 immunized, SFV-infected WT and γδ-KO B6 mice. All figures come from one micron epoxy sections taken from brain tissues, fixed in 2.5% glutaraldehyde/1% osmium tetroxide, embedded in epoxy resin, stained with toluidine blue and photographed by light microscopy.\nas §1\nas §1, with “[…] These lesions were impossible to quantitate due to very small sizes of nerve fibers. Consequently we plan to study” for “The embedded tissues will be cross-sectioned at 1 μm thickness, and”, “cross” for “slides stained with toluidine blue or 4% paraphenylenediamine to highlight the myelin sheets. We have studied the one-micron thin”, “spinal cords to quantitate these lesins, as has been previously reported (71). […]” for “the brains of SFV-infected WT and KO on days of 21-42 postinfection.”"}}, "note": "“Also recorded” adds a separate entry of the source.", "data": [{"compound": "CC[C@H](C)[C@H](NC(=O)[C@H](CCC(=O)O)NC(=O)[C@H](CCCCN)NC(=O)CNC(=O)[C@H](Cc1ccc(O)cc1)NC(=O)[C@H](Cc1c[nH]cn1)NC(=O)[C@@H]1CCCN1C(=O)[C@H](CCCNC(=N)N)NC(=O)[C@@H](NC(=O)[C@@H](NC(=O)[C@H](Cc1ccccc1)NC(=O)[C@H](CCCCN)NC(=O)[C@H](CCC(=O)O)NC(=O)[C@H](CCCNC(=N)N)NC(=O)CN)[C@@H](C)O)[C@@H](C)CC)C(=O)O", "note": "[E2 137-151]", "values": [{"measurement": "Normal Rabbit Serum, OD at 490 nm", "setting": "Normal Rabbit Serum", "value": 0.173, "unit": "OD"}, {"measurement": "Formation of anti-E2 137-151 antibody in SFV-infected, immunized WT mice", "setting": "[1]; 0.5 mg/injection sc in IFA, WT mice", "value": "suppressed"}, {"measurement": "Ratio of antibody production to SFV, immunized versus non-immunized", "setting": "[1]; KO and WT mice", "value": "did not increase"}, {"measurement": "Antibody to E2 137-151 peptide after immunization", "setting": "[1]; SFV-infected KO mice", "value": "increased the antibody to this peptide only"}, {"measurement": "Ratio of KO/WT anti E2 137-151 antibody production", "setting": "[1]; immunized versus non-immunized", "value": "significantly increased"}, {"measurement": "Wallerian degeneration in lumbar spinal cord", "setting": "B6 mice with EAE; day 33", "value": "No wallerian degeneration"}, {"measurement": "Inflammation in lumbar spinal cord", "setting": "B6 mice with EAE; day 33 pi", "value": "little to no inflammation; also recorded: No wallerian degeneration and inflammation is present"}, {"measurement": "Remyelination in spinal cord", "setting": "B6 mice with EAE; day 33 pi", "value": "some remyelinating fibers; also recorded: some fibers display remyelination"}, {"measurement": "Remyelination in spinal cord", "setting": "B6 mice with EAE; day 33 pi, listed as E2 137-151 peptide", "value": "induced remyelination"}, {"measurement": "Remyelination in WT mice", "setting": "[2]; peptide-immunized SFV-infected WT mice", "value": "normal remyelination"}, {"measurement": "Remyelination in KO mice", "setting": "[2]", "value": "advanced remyelination"}, {"measurement": "Remyelination in KO mice", "setting": "[2]; listed as E2 137-151 peptide", "value": "early remyelination; also recorded: promoted remyelination"}]}]}
